Test results: ChEMBL document CHEMBL3399939, “Synthetic studies of five-membered heteroaromatic derivatives as potassium-competitive acid blockers (P-CABs)” (Bioorg Med Chem Lett, 2015)

Columns and labels:
Sus scrofa = species: Sus scrofa; experiment: Inhibition of K+-stimulated H(+)/K(+) ATPase in porcine gastric mucosal microsomal fraction assessed as reduction in inorganic phosphate release at 10 uM incubated at 37 degC for 30 mins in presence of ATP by malachine green dye based colorimetry; format: microsomes; settings: Gastric mucosa
[1] = Lipophilicity, log D of the compound; format: physicochemical; settings: octanol/water
[2] = Inhibition of K+-stimulated H(+)/K(+) ATPase in porcine gastric mucosal microsomal fraction assessed as reduction in inorganic phosphate release incubated at 37 degC for 30 mins in presence of ATP by malachine green dye based colorimetry; format: microsomes, Sus scrofa, Gastric mucosa

Row | Structure (SMILES) | inhibition (Sus scrofa) | logD [1] | IC50 [2]
1 | CNCc1cn(S(=O)(=O)c2ccc(C)cc2)c(-c2ccccc2)n1 |  | 0 | 99 nM
2 | CNCc1cc(-c2ccccc2)c(S(=O)(=O)c2ccc(C)cc2)o1 | 33.2% |  | 
3 | CNCc1cc(S(=O)(=O)c2ccccc2)n(-c2ccccc2)c1 |  | 0.4 | 130 nM
4 | CNCc1cc(S(=O)(=O)c2ccccc2)c(-c2ccccc2)[nH]1 | 19.8% |  | 
5 | CNCc1cc(S(=O)(=O)c2ccccc2)n(-c2ccccc2)n1 |  | 1.1 | 68 nM
6 | CNc1nc(-c2ccccc2)c(S(=O)(=O)c2ccccc2)s1 | 3.6% |  | 
7 | CCNc1nc(-c2ccccc2)c(S(=O)(=O)c2ccccc2)s1 | 6.9% |  | 
8 | CNCc1cc(S(=O)(=O)c2ccccc2)c(-c2ccccc2)o1 |  | 1.8 | 1000 nM

Further lines, results first:

Row | inhibition (Sus scrofa) | logD [1] | IC50 [2] | Structure (SMILES)
9 | 2% |  |  | CNCc1nc(S(=O)(=O)c2ccccc2)c(-c2ccccc2)s1
10 |  | 1.9 | 150 nM | CNCc1cc(S(=O)(=O)c2ccccc2)c(-c2ccccc2)s1
11 |  | 2.1 | 52 nM | CNCc1cc(-c2ccccc2)c(S(=O)(=O)c2ccccc2)s1
12 |  | 2.1 | 170 nM | CNCc1nc(-c2ccccc2)c(S(=O)(=O)c2ccccc2)s1
